Assay [1] is described as follows: Inhibition of HIV1 reverse transcriptase K103N/Y181C double mutant infected in human MT2 cells assessed as protection against viral infection by MTT assay. For orientation: Tetrazolium dyes change colour on reduction, which living cells bring about.
Assay [2] in a line: Inhibition of HIV1 reverse transcriptase Y181C mutant infected in human MT2 cells assessed as protection against viral infection by MTT assay.

Where only a bound is given, the exact number is not on record here.

Here are results for 27 compounds from BindingDB's records for doi:10.1021/acsmedchemlett.6b00390 (Yale University, 2016).

The EC50 is the concentration giving half of the maximal effect. As for `CCCc1cc(Oc2ccccc2OCCn2ccc(=O)[nH]c2=O)c(C)c2cc(C#N)ccc12`, the values for the 50% effective concentration (EC50) in assay [1] and in assay [2] were 990 nM and 630 nM, respectively.

On to `Cc1c(Oc2ccc(F)cc2OCCn2ccc(=O)[nH]c2=O)cc(F)c2ccc(C#N)cc12`, for which the concentration giving a half-maximal response (EC50) in assay [1] turned out to be 980 nM; in assay [2], 31 nM.

As to `N#Cc1ccc2ccc(Oc3ccccc3OCCn3ccc(=O)[nH]c3=O)cc2c1`, the concentration for a half-maximal effect (EC50) in assay [1] was found to be 4000 nM; in assay [2], 2600 nM.

For `N#Cc1ccc2c(F)cc(Oc3ccccc3OCCn3ccc(=O)[nH]c3=O)c(Cl)c2c1`, the EC50 was determined as 310 nM in assay [1] and 90 nM in assay [2].

Consider `Cc1c(Oc2ccccc2OCCn2ccc(=O)[nH]c2=O)c(C)c2cc(C#N)ccc2c1C`, for which the EC50 in assay [1] came out at 790 nM.

With `Cc1cc(Oc2ccccc2OCCn2ccc(=O)[nH]c2=O)c(C)c2cc(C#N)ccc12`, the concentration giving a half-maximal response (EC50) in assay [1] was determined as 150 nM; in assay [2], 62 nM.

In the case of `Cc1c(Oc2ccccc2OCCn2ccc(=O)[nH]c2=O)cc(F)c2ccc(C#N)cc12`, the EC50 in assay [1] worked out at 890 nM; in assay [2], 60 nM.

With `Cc1cc(Oc2ccccc2OCCn2ccc(=O)[nH]c2=O)c(Cl)c2cc(C#N)ccc12`, the concentration for a half-maximal effect (EC50) in assay [1] worked out at 120 nM; in assay [2] it was 42 nM.

As for `Cc1c(Oc2ccc(Cl)cc2OCCn2ccc(=O)[nH]c2=O)cc(F)c2ccc(C#N)cc12`, the EC50 in assay [1] is greater than 100 nM; in assay [2], 330 nM.

Take `Cc1c(Oc2ccccc2OCCn2ccc(=O)[nH]c2=O)cc(CC2CC2)c2ccc(C#N)cc12`: the EC50 in assay [1] is 1200 nM; in assay [2], 900 nM.

As for `COCc1cc(Oc2ccccc2OCCn2ccc(=O)[nH]c2=O)c(C)c2cc(C#N)ccc12`, the EC50 in assay [1] came out at 790 nM; in assay [2], 690 nM.

On to `N#Cc1ccc2c(F)cc(Oc3ccc(F)cc3OCCn3ccc(=O)[nH]c3=O)c(Cl)c2c1`, for which the figures for the 50% effective concentration (EC50) in assay [1] and in assay [2] were 1600 nM and 72 nM, respectively.

Take `CCc1cc(Oc2ccccc2OCCn2ccc(=O)[nH]c2=O)c(C)c2cc(C#N)ccc12`: the 50% effective concentration (EC50) in assay [1] turned out to be 300 nM; in assay [2], 150 nM.

For `N#Cc1ccc2c(Cl)cc(Oc3ccc(F)cc3OCCn3ccc(=O)[nH]c3=O)cc2c1`, the concentration giving a half-maximal response (EC50) in assay [1] is 4100 nM; in assay [2], 1100 nM.

As for `COc1cc(Oc2ccccc2OCCn2ccc(=O)[nH]c2=O)c(C)c2cc(C#N)ccc12`, the EC50 in assay [1] was 1600 nM; in assay [2] it was 670 nM.

For the compound `Cc1cc(Oc2ccccc2OCCn2ccc(=O)[nH]c2=O)cc2cc(C#N)ccc12`, the EC50 in assay [1] turned out to be 2900 nM; in assay [2] it was 800 nM.

As to `N#Cc1cc2c(Oc3ccc(F)cc3OCCn3ccc(=O)[nH]c3=O)cc(F)cn2c1`, the results for the EC50 in assay [1] and in assay [2] were 10 nM and 250 nM, respectively.

As to `Cc1cc(Oc2ccc(F)cc2OCCn2ccc(=O)[nH]c2=O)c(C)c2cc(C#N)ccc12`, the values for the EC50 in assay [1] and in assay [2] were 410 nM and 28 nM, respectively.

Turning to `Cc1cc2ccc(C#N)cc2c(C)c1Oc1ccccc1OCCn1ccc(=O)[nH]c1=O`, the concentration for a half-maximal effect (EC50) is 1700 nM in assay [1] and greater than 100 nM in assay [2].

As for `Cc1c(Oc2ccc(F)cc2OCCn2ccc(=O)[nH]c2=O)cc(Cl)c2ccc(C#N)cc12`, the EC50 turned out to be 500 nM in assay [1] and 27 nM in assay [2].

`Cc1c(Oc2ccccc2OCCn2ccc(=O)[nH]c2=O)cc(Cl)c2ccc(C#N)cc12`: the EC50 in assay [2] turned out to be 58 nM.

Regarding `Cc1cc(Oc2ccc(F)cc2OCCn2ccc(=O)[nH]c2=O)c(F)c2cc(C#N)ccc12`, the EC50 in assay [1] was determined as 3800 nM; in assay [2], 1200 nM.

With `Cc1c(Oc2ccccc2OCCn2ccc(=O)[nH]c2=O)cc(C(C)C)c2ccc(C#N)cc12`, the EC50 in assay [1] stood at 100 nM; in assay [2], 400 nM.

On to `N#Cc1ccc2c(Cl)cc(Oc3ccccc3OCCn3ccc(=O)[nH]c3=O)cc2c1`, for which the EC50 in assay [1] and in assay [2] was 890 nM throughout.

Take `N#Cc1ccc2ccc(Oc3ccc(F)cc3OCCn3ccc(=O)[nH]c3=O)cc2c1`: the EC50 in assay [1] was found to be 9400 nM; in assay [2], 1200 nM.

`N#Cc1ccc2cc(Oc3ccccc3OCCn3ccc(=O)[nH]c3=O)ccc2c1`: the concentration giving a half-maximal response (EC50) in assay [1] was 5600 nM; in assay [2] it was greater than 100 nM.

With `CCOc1cc(Oc2ccccc2OCCn2ccc(=O)[nH]c2=O)c(C)c2cc(C#N)ccc12`, the EC50 is 800 nM in assay [1] and 200 nM in assay [2].
